Test results published in publication doi:10.1101/2023.01.01.522448v1 (biorxiv, 2023).

Test system: PrASNase (glutaminase-free recombinant L-asparaginase)
Test: Nesslerization
Format: biochemical, Metapseudomonas resinovorans
Details: pH 8.6, 37°C; 500 nM enzyme; 2-20 mM substrate

Compound: NC(=O)C[C@H](N)C(=O)O [L-asparagine]
- Km: 9.49 mM
